# US7473783B2, “Bicyclic pyrazolo protein kinase modulators” (SGX Pharmaceuticals, Inc., priority 2003, dated 2009)
# Substitutions are numbered along the chain they refer to.
# Key:
# Type in all cases: biochemical
# [1] = target: T1, autophosphorylated FLT3 kinase domain (FLT3KD) (Homo sapiens, UniProt P36888); test: FLT3 kinase assay (PK/LDH coupled, NADH loss at 340 nm); details: 250 μM ATP
# T1 construct: purified and autophosphorylated FLT3 kinase domain (FLT3KD); 6xHis (C); made in house; host or cells: baculovirus, SF9 / SF21 insect cells
# T1 sequence (P36888 610-943 limits assumed): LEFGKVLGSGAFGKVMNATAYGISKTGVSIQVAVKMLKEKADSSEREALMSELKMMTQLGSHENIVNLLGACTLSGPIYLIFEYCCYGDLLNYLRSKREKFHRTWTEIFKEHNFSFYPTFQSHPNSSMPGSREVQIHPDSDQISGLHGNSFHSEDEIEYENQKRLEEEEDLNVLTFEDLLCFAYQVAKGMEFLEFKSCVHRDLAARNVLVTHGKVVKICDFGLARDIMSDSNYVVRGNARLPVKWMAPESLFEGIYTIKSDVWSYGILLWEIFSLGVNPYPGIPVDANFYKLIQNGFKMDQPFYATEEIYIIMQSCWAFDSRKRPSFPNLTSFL
# Description: Although this example presents the use of the FLT3 kinase domain, the kinase assays may use various forms of FLT3, including, for example, the entire molecule, the kinase domain, or a portion thereof.
# Materials : Substrate peptide=Poly (Glu, Tyr) 4:1=poly EY (Sigma P-0275); βNADH (Sigma CAT#N-8129, FW=709.4); 2M MgCl2; 1M HEPES buffer, pH 7.5; Phosphoenolpyruvate=PEP (Sigma CAT#P-7002, FW=234); Lactate dehydrogenase=LDH (Worthington Biochemical CAT#2756); Pyruvate Kinase=PK (Sigma CAT#P-9136); ATP (Sigma CAT#A-3377, FW=551); Greiner 384-well UV star plate; and purified and autophosphorylated FLT3 kinase domain (FLT3KD).
# Stock Solutions: 10 mM NADH (7.09 mg/mL in miliQH2O) make fresh daily; 1 mg/mL Poly EY (in miliQH2O) store at −20° C.; 200mM HEPES buffer, pH 7.5 (10 ml 1M stock+40 ml miliQH2O) supplemented with 1 mM DTT; 100 mM MgCl2 (5 mL+95 ml dH2)); 100 mM PEP (23.4 mg/mL in dH2O) store at −20° C.; 10 mM ATP (5.51 mg/mL in dH2O) store at −20° C. (dilute 1 mL into total of 10 mL miliQH2O daily=1 mM ATP working stock); 1000 U/mL PK (U/mg varies with lot) flash-freeze under liquid N2 and store at −80° C.; 1000 U/mL LDH (U/mg varies with lot) flash-freeze under liquid N2 and store at −80° C.
# Standard Assay Setup for 384-well format (50 μl reaction): 300 μM NADH; 10 mM MgCl2; 2 mM PEP; 45 U/mL PK; 60 U/mL LDH; 1 mg/mL Poly EY; 2.5 μL test compound (in DMSO); 10 μg/mL autophosphorylated FLT3 kinase domain; 250 μM ATP*; 100 mM HEPES buffer; QS with miliQ dH2O to 50 μL. Positive controls contained DMSO with no test compound. Negative controls contained 5 μl of 0.5M EDTA (50 mM in the assay). The kinase reaction was initiated at time t=0 by the addition of ATP.
# The unphosphorylated FLT3KD that was produced required pre-incubation with MgATP to allow for autophosphorylation and full kinase activity. The autophosphorylation reaction was run in 100 mM HEPES buffer, 1 mM DTT, and 1 mg/mL FLT3KD by the addition of ATP and MgCl2 to a final concentration of 2 mM and 10 mM respectively. The reaction was allowed to proceed at room temperature for 90 minutes, and then was quenched by the addition of EDTA to 50 mM. The autophosphorylated protein was then aliquotted and flash frozen in liquid N2 for use.
# (§1) The activity was measured by following the time-dependent loss of NADH by absorbance spectroscopy at 340 nm. The linear portion of the resulting progress curve was then be analyzed by linear regression to get the activity in absorbance units/time, reported as the slope of that best fit line (moles/unit time can be calculated from using molar extinction coeffecient for NADH at 340 nm, 6250M^−1cm^−1).
# Data was analyzed using the equation: Z′=1−[3*(σ++σ−)/|μ+−μ−|], where μ denotes the mean and σ the standard deviation. The subscript designates positive or negative controls. The Z′ score for a robust screening assay should be ≧0.50. The typical threshold=μ+−3*σ+. Any value that falls below the threshold was designated a “hit.”
# The dose response was measured using the equation: y=min+{(max−min)/1+10^[compound]-logIC50)}, where y is the observed initial slope, max is the slope in the absence of inhibitor, min is the slope at infinite inhibitor, and the IC50 is the [compound] that corresponds to ½ the total observed amplitude (Amplitude=max−min). The IC50 is related to the Ki by the following equation: IC50=Ki(1+[ATP]/Km).
# To measure modulation, activation, or inhibition of FLT3KD, a test compound was added to the assay at a range of concentrations. Inhibitors may inhibit FLT3KD activity at an IC50 in the micromolar range, the nanomolar range, and, for example, in the subnanomolar range. […]
# [2] = target: T2, Abl T315I kinase domain, unphosphorylated (Mus musculus, UniProt P00520, T315I); test: Abl T315I kinase assay (PK/LDH coupled, NADH loss at 340 nm); details: Table 8; 10 μM ATP; zero phosphorylation state
# T2 construct: Purified and unphosphorylated T315I Abl kinase domain (clone 5582d42PPt6p6); made in house; host or cells: E. coli BL21(DE3) pSA0145, phosphatase co-expression plasmid
# T2 sequence (P00520 242-493 T315I limits assumed): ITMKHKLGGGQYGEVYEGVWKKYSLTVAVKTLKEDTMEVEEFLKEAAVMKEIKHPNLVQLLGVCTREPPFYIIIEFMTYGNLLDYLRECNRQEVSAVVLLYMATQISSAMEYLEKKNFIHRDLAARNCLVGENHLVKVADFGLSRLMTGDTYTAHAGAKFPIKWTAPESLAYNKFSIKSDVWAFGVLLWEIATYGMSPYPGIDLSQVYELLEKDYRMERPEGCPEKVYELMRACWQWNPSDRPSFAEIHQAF
# Description: (§2) Although this example presents the use of the kinase domain of a mutant form of Abl T315I 0-P, the kinase assays may use various forms of mutant and wild type Abl, including, for example, the entire molecule, the kinase domain, or a portion thereof. The kinases used in the assays may also be of varying phophorylation states. In the present example, a mutant kinase at a zero phosphorylation state was used.
# (§3) Materials: Abl substrate peptide=EAIYAAPFAKKK-OH (Biopeptide, SD CA); βNADH (Sigma CAT#N-8129, FW=709.4); 2M MgCl2; 1M HEPES buffer, pH 7.5; Phosphoenolpyruvate=PEP (Sigma CAT#P-7002, FW=234); Lactate dehydrogenase=LDH (Worthington Biochemical CAT#2756); Pyruvate Kinase=PK (Sigma CAT#P-9136); ATP (Sigma CAT#A-3377, FW=551); Greiner 384-well UV star plate; and Purified and unphosphorylated T315I Abl kinase domain (clone 5582d42PPt6p6).
# (§4) Stock Solutions: 10 mM NADH (7.09 mg/mL in miliQH2O) make fresh daily; 10 mM Abl substrate peptide (13.4 mg/mL in miliQH2O) store at −20° C.; 100 mM HEPES buffer, pH 7.5 (5 mL 1M stock+45 mL miliQH2O); 100 mM MgCl2 (5 mL 2M MgCl2+95 ml dH2O); 100 mM PEP (23.4 mg/mL in dH2O) store at −20° C.; 10 mM ATP (5.51 mg/mL in dH2O) store at −20° C. (dilute 50 μL into total of 10 mL miliQH2O daily=50 μM ATP working stock); 1000 U/mL PK (U/mg varies with lot) flash-freeze under liquid N2 and store at −80° C.; and 1000 U/mL LDH (U/mg varies with lot) flash-freeze under liquid N2 and store at −80° C.
# (§5) Standard Assay Setup for 384-well format (50 μl reaction): 300 μM NADH; 10 mM MgCl2; 2 mM PEP; 45 U/mL PK; 60 U/mL LDH; 200 μM Abl substrate peptide; 2.5 μL test compound (in DMSO); 2 μg/mL Abl kinase domain; 10 μM ATP; 100 mM HEPES buffer; QS with miliQ dH2O to 50 μL; Positive controls contained DMSO with no test compound. Negative controls contained 5 μl of 0.5M EDTA (50 mM in the assay). The dephosphorylated form of the c-Abl T315I mutant were used in the biochemical screening assays. The kinase reaction was initiated at time t=0 by the addition of ATP.
# as §1, with “coefficient” for “coeffecient”
# (§6) Data was analyzed using the equation: Z′=1-[3*(σ++σ−)/|μ+−μ−|], where μ denotes the mean and σ the standard deviation. The subscript designates positive or negative controls. The Z′ score for a robust screening assay should be ≧0.50. The typical threshold=μ+−3*σ+. Any value that falls below the threshold was designated a “hit”.
# (§7) Dose response was analyzed using the equation: y=min+{(max−min)/(1+10^[compound]-logIC50)}, where y is the observed initial slope, max=the slope in the absence of inhibitor, min=the slope at infinite inhibitor, and the IC50 is the [compound] that corresponds to ½ the total observed amplitude (Amplitude=max−min).
# (§8) To measure modulation, activation, or inhibition of AblKD, a test compound was added to the assay at a range of concentrations. Inhibitors may inhibit AblKD activity at an IC50 in the micromolar range, the nanomolar range, and, for example, in the subnanomolar range.
# (§9) To measure the binding of a compound to Abl or AblKD, a test kit manufactured by Discoverx (Fremont, Calif.), ED—Staurosporine NSIP™ Enzyme Binding Assay Kit (see U.S. Pat. No. 5,643,734) was used.
# Abl Y393F = target: T3, Abl Y393F (Mus musculus, UniProt P00520, Y393F); test: Abl Y393F kinase assay; details: Table 8
# T3 construct: 2 μg/mL Abl kinase domain; made in house
# T3 sequence (P00520 242-493 Y393F limits assumed): T2 sequence (P00520 242-493 T315I limits assumed) with I74T, Y152F
# Description: as §2, §3, §4, §5
# as §1, with “coefficient” for “coeffecient”
# as §6, §7, §8, §9
IC50 ([1]; Table 6) [µM],IC50 [2] [µM],IC50 (Abl Y393F) [µM],SMILES,further results
–,–,–,O=C(Nc1nc2[nH]nc(-c3cccc(C(F)(F)F)c3)c2s1)c1ccccc1,IC50 ([1]; Table 5): 1 to 10 µM
< 0.1,–,–,O=C(Nc1nc2[nH]nc(-c3ccncc3)c2s1)c1ccccc1,–
< 0.1,–,–,O=C(Nc1nc2[nH]nc(-c3ccccc3)c2s1)c1ccno1,–
0.1 to 1,–,–,CC(C)(C)c1n[nH]c2nc(NC(=O)c3ccccc3)sc12,–
0.1 to 1,–,–,O=C(Nc1nc2[nH]nc(-c3ccco3)c2s1)c1ccccc1,–
0.1 to 1,–,–,O=C(Nc1nc2[nH]nc(-c3ccccn3)c2s1)c1ccco1,–
> 1,–,–,CC(C)(C)c1n[nH]c2nc(NC(=O)c3ccncc3)sc12,–
–,> 1,> 1,CC(=O)Nc1nc2[nH]nc(-c3ccccc3Cl)c2s1,–
–,0.5 to 1,0.5 to 1,O=C(Nc1nc2[nH]nc(-c3ccccc3)c2s1)c1cccs1,–
–,> 1,> 1,O=C(Nc1nc2[nH]nc(-c3cccc(Br)c3)c2s1)c1ccccc1,–
–,> 1,> 1,COCC(=O)Nc1nc2[nH]nc(-c3ccccc3)c2s1,–
–,–,–,O=C(Nc1nc2[nH]nc(-c3ccc(Cl)cc3)c2s1)c1ccccc1 [drawing 246],IC50 ([1]; Table 5): < 1 µM
–,–,–,O=C(Nc1nc2[nH]nc(-c3ccccc3)c2s1)c1ccncc1 [drawing 248],IC50 ([1]; Table 5): < 1 µM
–,–,–,O=C(Nc1nc2[nH]nc(-c3ccccc3)c2s1)c1cccc(Br)c1 [drawing 249],IC50 ([1]; Table 5): 1 to 10 µM
–,–,–,COCCOCC(=O)Nc1nc2[nH]nc(-c3ccccc3)c2s1 [drawing 250],IC50 ([1]; Table 5): 1 to 10 µM
–,–,–,CC(=O)N1CCC(C(=O)Nc2nc3[nH]nc(-c4ccccc4)c3s2)CC1 [drawing 251],IC50 ([1]; Table 5): 1 to 10 µM
< 0.1,–,–,O=C(Nc1nc2[nH]nc(-c3ccc(O)cc3)c2s1)C1CC1 [drawing 254],–
> 1,–,–,O=C(Nc1nc2[nH]nc(-c3ccccc3)c2s1)c1cccc(Br)c1 [drawing 259],–
–,< 0.5,< 0.5,O=C(Nc1nc2[nH]nc(-c3ccccc3Cl)c2s1)C1CC1 [drawing 266],–
–,< 0.5,< 0.5,O=C(Nc1nc2[nH]nc(-c3ccccc3Br)c2s1)C1CC1 [drawing 267],–
–,< 0.5,< 0.5,O=C(Nc1nc2[nH]nc(-c3ccccc3)c2s1)c1ccco1 [drawing 268],–
–,0.5 to 1,> 1,COc1ccc(-c2n[nH]c3nc(NC(=O)C4CC4)sc23)cc1 [drawing 271],–
